Source: US10981911B2, “Imidazopyrrolopyridine as inhibitors of the JAK family of kinases” (Janssen Pharmaceutica NV, priority 2016, dated 2021)
Where two headings read alike, the source gives them in different places.

Experiments:
P-gp (MDR1) = experiment: MDCK-MDR1 permeability assay; type: in vitro ADME; details: dog; for Papp A→B at 60 min, 5 μM / Papp B→A at 60 min, 5 μM: MDCK-MDR1, pH 7.4, @ 5 μM; for Papp A→B at 60 min, 5 μM: apical to basolateral, without P-gp inhibitor; for Papp B→A at 60 min, 5 μM: basolateral to apical; for efflux ratio at 60 min, 5 μM: MDCK-MDR1, pH 7.4, MDCK-MDR1, 5 μM, read-out: Papp(B-A)/Papp(A-B) (efflux ratio)
Method: Permeability measurements were conducted according to the Cyprotex protocol using the MDCK-MDR1 cell line obtained from the NIH (Rockville, Md., USA). Cells between passage numbers 6-30 were seeded onto a Multiscreen Plate™ (Millipore) at a cell density of 3.4×10^5 cells/cm^2 and cultured for three days before permeability studies were conducted. The cells in this assay form a cohesive sheet of a single cell layer filing the surface area of the culture dish, also known as a confluent monolayer, and on day four the test compound was added to the apical side of the membrane and the transport of the compound across the monolayer was monitored over a time period of 60 min.
Test compounds were dissolved in DMSO at a concentration of 10 mM. The dosing solutions were prepared by diluting test compound with assay buffer (Hanks Balanced Salt Solution), pH 7.4, at a final concentration of 5 μM. For assessment of apical to basolateral (“A-B”) permeability, buffer was removed from the apical compartment and replaced with test compound dosing solution with or without the permeability glycoprotein (“PgP”, “P-gP”, “Pgp” or “P-gp”) inhibitor elacridar (2 μM). For assessment of basolateral to apical (“B-A”) permeability, buffer was removed from the companion plate and replaced with test compound dosing solution. Incubations were carried out in duplicate at 37° C. in an atmosphere of 5% CO2 with a relative humidity of 95%. Each assay included the reference markers propranolol (high permeability) and prazosin (PgP substrate). After incubation for 60 minutes, apical and basolateral samples were diluted and test compounds quantified by LC/MS/MS using an 8-point calibration in the range 0.0039 to 3 μM with appropriate dilution of the samples (receiver dilution factor=1; donor and C0 dilution factor=10). The permeability coefficient (Papp) for each compound was calculated from the following equation: Papp=(dQ/dt)/(C0×S), where dQ/dt is the rate of permeation of the drug across the cells, C0 is the donor compartment concentration at time zero, and S is the area of the cell monolayer.
The second and third columns in Table 7 show the values of Papp(A-B) for the apical-to-basolateral compound transport without (second column) and with a P-gp inhibitor (third column, noted as P^eapp(A-B)) that was elacridar. Papp(A-B) gives an indication of permeation extent across the cells in this assay, which is envisaged to model the transcellular transport across Pgp-expressing cells, such as Pgp-expressing gastrointestinal tract cells. P^eapp(A-B) values (Papp(A-B) in the presence of the P-gp inhibitor) given in column 3 are determined to confirm the role of P-gp in the compound efflux. […] Test compound efflux ratios are given in the fifth column of Table 7 as Papp(B-A)/Papp(A-B) by using the corresponding permeability coefficient values from the fourth and second columns in the same table.

[1] = Solubility assays in simulated gastric and simulated intestinal fluids; type: physicochemical; details: thermodynamic from solid, 2-5 days
Method: Test compounds were dissolved in DMSO at a concentration of 10 mM. The test compounds were dispensed (20 μL) into Nunc 1-mL-96-Deep-Well-PP plates, and the DMSO was evaporated via nitrogen blow down from a TurboVap 96 for 6 hours or until a dry residue was produced. Then, 400 μL of solubility media was added to the well containing the dry solid. […] After the incubation period, the samples were filtered through an AcroPrep 1-mL-96-Filter plate into a new 2-mL-96-Deep-Well-PP plate, and the supernatants were quantified by UV-HPLC using a 3-point calibration ranging from 0.004-0.55 mM. The solubility for each compound was calculated from the following equation: […] Solubilities are reported as long as the compound under study was sufficiently stable to complete the corresponding solubility determination.

IL-2 pSTAT5 (JAK1/JAK3) = IL-2 pSTAT5 (JAK1/JAK3) cellular assay (AlphaLISA, PBMCs); type: cell-based; details: PBMC, IL-2 at 5 ng/mL
Method: The AlphaLISA assay (based on Alpha Technology from PerkinElmer) was performed by first plating freshly thawed PBMCs (Biological Specialty Corporation) in 384-well plates at 30,000 cells per 4 μL per well in HBSS (Hanks' Balanced Salt Solution) containing 0.1% IgG (immunoglobulin G)-free, protease-free BSA (bovine serum albumin) (Jackson ImmunoResearch Cat. No. 001-000-161). The cells were then treated with 2 μL/well of compounds diluted in DMSO at half-log titrated concentrations, with a highest test concentration of 10 μM and 0.5% final DMSO concentration, for thirty minutes at 37° C. […] Compound IC50 was calculated by nonlinear regression, sigmoidal dose response analysis of the half-log dilution titration curve of the compound concentration vs. Alpha signal. The acronym “Alpha” stands for amplified luminescent proximity homogeneous assay; the Alpha signal is a luminescent/fluorescent signal.

IFNα pSTAT4 (JAK1/TYK2) = IFNα pSTAT4 (JAK1/TYK2) cellular assay (AlphaLISA, PBMCs); type: cell-based; details: PBMC, IFNα at 4 ng/mL
Method: The AlphaLISA assay (based on Alpha Technology from PerkinElmer) was performed by first plating freshly thawed PBMCs (Biological Specialty Corporation) in 384-well plates at 100,000 cells per 6 μL per well in DMEM (Dulbecco's Modified Eagle Medium) containing 10% FBS (fetal bovine serum) and 1,000 I.U./mL penicillin and 1,000 μg/mL streptomycin. The cells were then treated with 2 μL/well of compounds diluted in DMSO at half-log titrated concentrations, with a highest test concentration of 10 μM and 0.5% final DMSO concentration, for thirty minutes at 37° C. Next, the cells were stimulated with 2 μL/well of IFNα (PBL Assay Science Cat. No. 11101-2) at 4 ng/mL for thirty minutes at 37° C. The cellular reactions were terminated by the addition of 2 μL/well of lysis buffer (PerkinElmer Cat. No. ALSU-PST4-A10K) followed by an incubation of five minutes at room temperature. 4 μL/well of acceptor mix (PerkinElmer Cat. No. ALSU-PST4-A10K) was added to the cells and incubated in the dark for one hour at room temperature. Then, 4 μL/well of donor mix (PerkinElmer Cat. No. ALSU-PST4-A10K) was added to the cells and incubated in the dark overnight at room temperature. Finally, the plates were read on a PerkinElmer EnVision for detection of the time-resolved fluorescence signal. The percentage of IFNα-dependent pSTAT4 inhibition was determined at the compound test concentrations; and for each compound, a dose curve was generated and the IC50 was calculated. Compound IC50 was calculated by nonlinear regression, sigmoidal dose response analysis of the half-log dilution titration curve of the compound concentration vs. Alpha signal. The term “Alpha” is defined in the immediately preceding cellular assay description.

[2] = simulated gastric fluid, ambient temperature, read-out: SGF solubility
[3] = fassif, simulated intestinal fluid, fasted state pH 6.5, ambient temperature, read-out: SIF solubility

| Structure (SMILES) | Papp A→B at 60 min, 5 μM (P-gp (MDR1)) [×10⁻⁶ cm/s] | Papp B→A at 60 min, 5 μM (P-gp (MDR1)) [×10⁻⁶ cm/s] | efflux ratio at 60 min, 5 μM (P-gp (MDR1)) | solubility [1, 2] [µM] | IC50 (IL-2 pSTAT5 (JAK1/JAK3)) [nM] | IC50 (IFNα pSTAT4 (JAK1/TYK2)) [nM] | solubility [1, 3] [µM] |
| --- | --- | --- | --- | --- | --- | --- | --- |
| CC(C)(O)CNC(=O)Cc1nc2cnc3[nH]ccc3c2n1[C@H]1CC[C@H](CC#N)CC1 [Ex. 1, 2-(1-((1r,4r)-4-(Cyanomethyl)cyclohexyl)-1,6-dihydroimidazo[4,5-d]pyrrolo[2,3-b]pyridin-2-yl)-N-(2-hydroxy-2-methylpropyl)acetamide] | < 0.5 | 0.9 | > 1.9 | > 400 | – | – | – |
| N#CCC1CCC(n2c(-c3c[nH]cn3)nc3cnc4[nH]ccc4c32)CC1 (stereo not drawn) [Ex. 2, 2-((1r,4r)-4-(2-(1H-Imidazol-4-yl)imidazo[4,5-d]pyrrolo[2,3-b]pyridin-1(6H)-yl)cyclohexyl)acetonitrile] | 1.1 | 4.8 | 4.4 | > 400 | 9 | 20.8 | > 400 |
| N#CC[C@H]1CC[C@H](n2c(CC(=O)NCC3CC3)nc3cnc4[nH]ccc4c32)CC1 [Ex. 3, 2-(1-((1r,4r)-4-(Cyanomethyl)cyclohexyl)-1,6-dihydroimidazo[4,5-d]pyrrolo[2,3-b]pyridin-2-yl)-N-(cyclopropylmethyl)acetamide] | < 0.4 | 17 | > 41 | > 400 | 6.4 | 10.1 | > 400 |
| N#CCCNC(=O)Cc1nc2cnc3[nH]ccc3c2n1[C@H]1CC[C@H](CC#N)CC1 [Ex. 4, N-(2-Cyanoethyl)-2-(1-((1r,4r)-4-(cyanomethyl)cyclohexyl)-1,6-dihydroimidazo[4,5-d]pyrrolo[2,3-b]pyridin-2-yl)acetamide] | 0.1 | 1.3 | 8.7 | > 400 | 35.5 | 64.7 | > 400 |
| N#CC[C@H]1CC[C@H](n2c(CC(=O)NC3CCOCC3)nc3cnc4[nH]ccc4c32)CC1 [Ex. 5, 2-(1-((1r,4r)-4-(Cyanomethyl)cyclohexyl)-1,6-dihydroimidazo[4,5-d]pyrrolo[2,3-b]pyridin-2-yl)-N-(tetrahydro-2H-pyran-4-yl)acetamide] | < 0.4 | 1.8 | > 4.8 | > 400 | 6.4 | 38.1 | – |
| N#CC[C@H]1CC[C@H](n2c(CC(=O)NCC3CCOCC3)nc3cnc4[nH]ccc4c32)CC1 [Ex. 10, 2-(1-((1r,4r)-4-(Cyanomethyl)cyclohexyl)-1,6-dihydroimidazo[4,5-d]pyrrolo[2,3-b]pyridin-2-yl)-N-((tetrahydro-2H-pyran-4-yl)methyl)acetamide] | < 0.3 | 2.5 | > 8.4 | > 400 | 6.7 | 39.4 | > 400 |
| CC(C)(C#N)CNC(=O)Cc1nc2cnc3[nH]ccc3c2n1[C@H]1CC[C@H](CC#N)CC1 [Ex. 22, N-(2-Cyano-2-methylpropyl)-2-(1-((1r,4r)-4-(cyanomethyl)cyclohexyl)-1,6-dihydroimidazo[4,5-d]pyrrolo[2,3-b]pyridin-2-yl)acetamide] | < 0.4 | 3.6 | > 9 | > 400 | 9.7 | 38.5 | – |
| N#CC[C@H]1CC[C@H](n2c(CC(=O)NCC3(O)CCC3)nc3cnc4[nH]ccc4c32)CC1 [Ex. 34, 2-(1-((1r,4r)-4-(Cyanomethyl)cyclohexyl)-1,6-dihydroimidazo[4,5-d]pyrrolo[2,3-b]pyridin-2-yl)-N-((1-hydroxycyclobutyl)methyl)acetamide] | 0.1 | 1.7 | 11.5 | > 400 | 20.6 | 42.8 | > 400 |
| N#CCC12CCC(NC(=O)Cc3nc4cnc5[nH]ccc5c4n3[C@H]3CC[C@H](CC#N)CC3)(CC1)C2 [Ex. 55, N-(4-(Cyanomethyl)bicyclo[2.2.1]heptan-1-yl)-2-(1-((1r,4r)-4-(cyanomethyl)cyclohexyl)-1,6-dihydroimidazo[4,5-d]pyrrolo[2,3-b]pyridin-2-yl)acetamide] | < 0.4 | 7.1 | > 16.9 | > 400 | 16.8 | 40.4 | – |
